Calls of active or inactive are those of the source. No cut-off for these calls is given here.
What was measured:
PC-12 [1] = test: Induction of neuritogenic activity in rat PC12 cells assessed as long neurite outgrowths at 1 to 30 uM after 48 hrs; assay type: functional, cell-based
PC-12 [2] = test: Induction of neuritogenic activity in rat PC12 cells assessed as long neurite outgrowths at 100 uM after 48 hrs; assay type: functional, cell-based
PC-12 [3] = test: Induction of neuritogenic activity in rat PC12 cells assessed as long neurite outgrowths after 48 hrs; assay type: functional, cell-based
PC-12 [4] = test: Cytotoxicity against rat PC12 cells at 100 uM after 48 hrs; assay type: cell-based; conditions: pc-12, 48 h
PC-12 [5] = test: Cytotoxicity against rat PC12 cells at 1 to 30 uM after 48 hrs; assay type: cell-based; conditions: pc-12, 48 h
PC-12 [6] = test: Induction of neuritogenic activity in rat PC12 cells assessed as appearance of long multipolar and bipolar neurite outgrowths at 30 uM after 48 hrs by phase contrast microscopy; assay type: functional, cell-based
PC-12 [7] = test: Induction of neuritogenic activity in rat PC12 cells assessed as long neurite outgrowths at 30 uM after 48 hrs; assay type: functional
PC-12 [8] = test: Potentiation of NGF-induced neuritogenic activity in rat PC12 cells assessed as neurite outgrowths at 1 to 30 uM after 48 hrs; assay type: functional, cell-based

| Structure (SMILES) | Activity (PC-12 [1]) | Activity (PC-12 [2]) | Activity (PC-12 [3]) | Activity (PC-12 [4]) | Activity (PC-12 [5]) | Activity (PC-12 [6]) | Activity (PC-12 [7]) | Activity (PC-12 [8]) |
| --- | --- | --- | --- | --- | --- | --- | --- | --- |
| O=C(O)c1cccc(O)c1O | inactive | – | – | – | – | – | – | – |
| CC[C@H](C)CCCCCCCCCCCCCCCCCCCOC(=O)c1cccc(O)c1O [GENTISIDE B] | – | Active | Dose-dependent effect | Toxic | Non-toxic | Active | 87% | inactive |
| CC(C)CCCCCCCCCCCCCCCCCCCOC(=O)c1cccc(O)c1O [GENTISIDE A] | – | Active | Dose-dependent effect | Toxic | Non-toxic | Active | 82% | inactive |
